Laboratory results: patent publication US20230414826A1, “FIBRIN HYDROGELS” (Mayo Foundation for Medical Education and Research, priority 2020, published 2023)

Biological target: T1, fibrin gels (10 mg/mL fibrinogen, 1 U/mL thrombin) (Homo sapiens, UniProt P02671+P02675+P02679)
T1 construct: purchased Ethicon (Evicel)
T1 sequence (P02671 20-644 isoform P02671-2 limits assumed): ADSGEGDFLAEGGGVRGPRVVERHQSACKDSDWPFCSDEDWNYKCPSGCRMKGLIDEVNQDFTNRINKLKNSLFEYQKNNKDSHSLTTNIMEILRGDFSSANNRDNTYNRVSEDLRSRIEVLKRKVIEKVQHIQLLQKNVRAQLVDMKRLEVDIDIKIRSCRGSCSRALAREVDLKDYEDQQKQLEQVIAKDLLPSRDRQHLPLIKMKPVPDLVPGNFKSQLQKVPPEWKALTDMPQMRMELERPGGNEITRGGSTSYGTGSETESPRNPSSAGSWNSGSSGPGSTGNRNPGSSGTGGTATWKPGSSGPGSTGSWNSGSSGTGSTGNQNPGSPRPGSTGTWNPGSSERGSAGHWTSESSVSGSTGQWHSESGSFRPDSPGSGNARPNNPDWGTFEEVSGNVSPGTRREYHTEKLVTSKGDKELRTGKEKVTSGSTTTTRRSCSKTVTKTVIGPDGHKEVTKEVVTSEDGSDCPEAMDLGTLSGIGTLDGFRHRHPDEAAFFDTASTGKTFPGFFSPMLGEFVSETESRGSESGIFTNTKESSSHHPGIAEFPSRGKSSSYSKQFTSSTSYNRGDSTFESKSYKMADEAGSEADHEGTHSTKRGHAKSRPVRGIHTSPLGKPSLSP
T1 sequence (P02675 45-491 limits assumed): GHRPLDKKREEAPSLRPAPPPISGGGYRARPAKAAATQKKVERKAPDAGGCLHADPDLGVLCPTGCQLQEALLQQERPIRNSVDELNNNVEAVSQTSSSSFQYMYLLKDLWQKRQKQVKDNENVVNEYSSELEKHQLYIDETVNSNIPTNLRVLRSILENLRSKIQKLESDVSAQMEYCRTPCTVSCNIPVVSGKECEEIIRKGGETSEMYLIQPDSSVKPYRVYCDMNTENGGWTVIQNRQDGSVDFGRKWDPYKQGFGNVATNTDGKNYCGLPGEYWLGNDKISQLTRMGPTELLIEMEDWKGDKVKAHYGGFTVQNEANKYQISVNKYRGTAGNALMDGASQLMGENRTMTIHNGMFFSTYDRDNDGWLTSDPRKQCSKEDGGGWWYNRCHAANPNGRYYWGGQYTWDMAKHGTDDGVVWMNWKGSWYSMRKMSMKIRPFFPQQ
T1 sequence (P02679 27-437 isoform P02679-2 limits assumed): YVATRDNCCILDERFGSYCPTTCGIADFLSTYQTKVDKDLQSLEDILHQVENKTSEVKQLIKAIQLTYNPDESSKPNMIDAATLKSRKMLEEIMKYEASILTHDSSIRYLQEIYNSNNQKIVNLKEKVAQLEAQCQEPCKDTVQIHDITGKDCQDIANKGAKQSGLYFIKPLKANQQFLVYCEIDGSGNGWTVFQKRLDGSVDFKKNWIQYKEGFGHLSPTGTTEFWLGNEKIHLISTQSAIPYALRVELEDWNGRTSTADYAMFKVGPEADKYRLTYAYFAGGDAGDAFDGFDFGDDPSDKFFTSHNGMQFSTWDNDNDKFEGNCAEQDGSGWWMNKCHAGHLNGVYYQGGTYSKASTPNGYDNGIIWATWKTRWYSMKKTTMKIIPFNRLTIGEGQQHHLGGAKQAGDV
Assay: Rheometry gelation time, lower fibrinogen concentration fibrin gels
Type: biochemical
Settings: n=3
Experimental: The viscoelastic mechanical properties of fibrin gels were characterized using oscillatory shear rheology on a Discovery Hybrid Rheometer 2 (TA Instruments; New Castle, DE) with a 20 mm cone-and-plate geometry at a 1° angle and a 20 mm stage. Inertia, friction, and rotational mapping calibrations were performed prior to each experiment. A Peltier temperature-controlled stage maintained 37° C. and a solvent trap was used to control evaporation during experiments lasting longer than 20 minutes. Gels were prepared by mixing specified concentrations of fibrinogen, dye, and thrombin on the stage. Immediately after combining, the geometry head was lowered to 500 μm (˜1-3 seconds) before beginning the first experiment. Gelation kinetics were monitored in time sweeps at 1% strain and 10 rad/s angular frequency. Strain sweeps were measured from 0.01-1000% strain at 1 Hz frequency. A frequency sweeps measured from 0.01-3 Hz at 1% strain was used to confirmed fibrin independence of frequency.
Rheometry was performed for samples with no dye (PBS alone), TB, EB, and PEG. Stock fibrinogen (Evicel) was used as is or diluted with PBS. Thrombin was diluted in PBS, with or without the various dyes. To determine the gelation time, a final mixture concentration of 10 mg/mL fibrinogen, 1 U/mL thrombin, and 0.01% w/v dye concentration was used. A time sweep was performed up to 20 minutes, after which some minor effects of evaporation in non-gelled samples introduced noise and could not reliably detect the storage modulus (g′). The gelation time was defined as the point at which the g′ exceeded the g″ (viscous modulus) and continued to increase over time.
Rheometry was used to confirm findings obtained using the coagulation analyzer and test conditions at higher fibrinogen concentrations used in high mechanical strength scaffolds. While clotting time and gelation time are similar properties, the terms are utilized discretely due to the differences in the respective assays. However, in controls for gels at higher fibrinogen concentrations, thrombin concentrations were decrease by orders of magnitude to assess initial gel time based on the sensitivity of the rheometer. In order to consistently detect a gelation time, when the g′ value (shear modulus) becomes greater than the g″ value (viscous modulus), conditions were set to […] fibrinogen and 1 U/mL thrombin final concentration using tissue glue for all samples. Sample conditions tested using rheometry included use of PBS (control), TB, EB, or PEG solution to dilute the thrombin so that the final gel concentration of the dye was 0.01% w/v. […]
Initially, g′ and g″ values were on the same scale (<2 Pa). […] Due to this, the gelation time was calculated as when the g′ values exceeded the g″ value and continued to grow over time (arrow, FIG. 5A). […]

Compound: Cc1cc(-c2ccc(/N=N/c3ccc4c(S(=O)(=O)O)cc(S(=O)(=O)O)c(N)c4c3O)c(C)c2)ccc1/N=N/c1ccc2c(S(=O)(=O)O)cc(S(=O)(=O)O)c(N)c2c1O [EB, Evans Blue]
- gelation time (g′ exceeds g″) (0.01% w/v dye): 232.1 ± 19.3 s

Compound: Cc1cc(-c2ccc(/N=N/c3c(S(=O)(=O)O)cc4cc(S(=O)(=O)O)cc(N)c4c3O)c(C)c2)ccc1/N=N/c1c(S(=O)(=O)O)cc2cc(S(=O)(=O)O)cc(N)c2c1O [TB, Trypan Blue]
- gelation time (g′ exceeds g″) (0.005% w/v dye): 106.4 ± 22.5 s
- gelation time (g′ exceeds g″) (0.01% w/v dye): 168.7 ± 19.9 s
- gelation time (g′ exceeds g″) (0.12% w/v dye): 206.7 ± 31.3 s
